Read-outs that look alike come from different tables or passages of the source.
Target: T1, chimeric human H3 receptor (Homo sapiens, UniProt Q9Y5N1, E19D)
T1 construct: made in house; host or cells: Sf9 insect cells (baculovirus infection); P2 membrane preparation
Assay: Chimeric human H3 receptor screening GTP binding assay (inhibition of histamine-stimulated GTP-gamma35S binding, Example 8)
Assay type: biochemical
Settings: 1 h, read-out: percent inhibition of agonist-induced GTP-gammaS binding to H3
Summary of the method: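 Sf9 membranes co-expressing the chimeric receptor and a heterotrimeric G-protein (35 μg protein) in Tris pH 7.4 buffer with 10 μM GDP; compound at 4 μM plus 1 μM histamine, 125 pM GTP-gamma35S, 60 min at room temperature. Filter-bound radioactivity read; non-specific binding defined with 10 uM GTP-gammaS; percent inhibition of histamine signal.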

[1] = assay described in Example 8, symbol + in column headed Ki of Table II
[2] = "+" in Ki of Table II, assay of Example 8
[3] = Table II, "+" in the column headed Ki, assay of Example 8
[4] = Table II "Ki", symbol "+": assay described in Example 8

T1 sequence (Q9Y5N1 with tags, fused parts or gaps E19D): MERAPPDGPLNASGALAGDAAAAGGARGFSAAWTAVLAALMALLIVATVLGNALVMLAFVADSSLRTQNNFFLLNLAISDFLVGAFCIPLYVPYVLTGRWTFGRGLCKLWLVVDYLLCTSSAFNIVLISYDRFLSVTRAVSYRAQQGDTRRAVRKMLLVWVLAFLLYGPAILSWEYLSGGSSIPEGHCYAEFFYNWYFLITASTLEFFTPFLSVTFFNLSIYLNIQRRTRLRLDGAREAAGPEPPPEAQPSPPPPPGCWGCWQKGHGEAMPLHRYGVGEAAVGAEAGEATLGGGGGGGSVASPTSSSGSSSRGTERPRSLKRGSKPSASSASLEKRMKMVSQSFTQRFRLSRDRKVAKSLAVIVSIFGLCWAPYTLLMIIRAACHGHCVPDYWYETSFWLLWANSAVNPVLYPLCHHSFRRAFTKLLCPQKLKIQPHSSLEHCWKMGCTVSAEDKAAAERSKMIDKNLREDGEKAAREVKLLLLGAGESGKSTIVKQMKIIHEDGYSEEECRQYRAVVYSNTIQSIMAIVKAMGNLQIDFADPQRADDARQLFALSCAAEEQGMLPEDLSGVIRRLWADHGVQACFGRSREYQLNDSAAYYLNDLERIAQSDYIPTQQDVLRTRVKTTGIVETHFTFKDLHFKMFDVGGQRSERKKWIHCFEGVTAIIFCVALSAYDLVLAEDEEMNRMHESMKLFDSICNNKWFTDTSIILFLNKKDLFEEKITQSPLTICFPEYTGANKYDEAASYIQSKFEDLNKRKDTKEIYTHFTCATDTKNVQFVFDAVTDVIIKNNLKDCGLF

SMILES: O=C(CN1CCN(C(=O)c2ccc(Cl)nc2)CC1)N1CCN(C2CCC2)CC1 [Compound 416, 1-[(6-chloropyridin-3-yl)carbonyl]-4-[2-(4-cyclobutylpiperazin-1-yl)-2-oxoethyl]piperazine]
- inhibition at 4 µM [1]: > 90%

SMILES: Cc1c(C(=O)N2CCN(CC(=O)N3CCN(C4CCC4)CC3)CC2)cnn1-c1ccccc1 [Compound 569, 1-cyclobutyl-4-({4-[(5-methyl-1-phenyl-1H-pyrazol-4-yl)carbonyl]piperazin-1-yl}acetyl)piperazine]
- inhibition at 4 µM [2]: > 90%

SMILES: CC(C)(C)c1ccc(Oc2ncccc2C(=O)N2CCN(CC(=O)N3CCN(C4CCC4)CC3)CC2)cc1 [Compound 474, 1-{[2-(4-tert-butylphenoxy)pyridin-3-yl]carbonyl}-4-[2-(4-cyclobutylpiperazin-1-yl)-2-oxoethyl]piperazine]
- inhibition at 4 µM [2]: > 90%

SMILES: COc1ccc(C(=O)N2CCN(CC(=O)N3CCN(C4CCC4)CC3)CC2)c(OC)n1 [Compound 513, 1-cyclobutyl-4-({4-[(2,6-dimethoxypyridin-3-yl)carbonyl]piperazin-1-yl}acetyl)piperazine]
- inhibition at 4 µM [2]: > 90%

SMILES: CCCOc1ccccc1C(=O)N1CCN(CC(=O)N2CCN(C3CCC3)CC2)CC1 [Compound 722, 1-cyclobutyl-4-{[4-(2-propoxybenzoyl)piperazin-1-yl]acetyl}piperazine]
- inhibition at 4 µM [3]: > 90%

SMILES: CCOc1ccc(CC(=O)N2CCN(CC(=O)N3CCN(C4CCC4)CC3)CC2)cc1OC [Compound 557, 1-cyclobutyl-4-({4-[(4-ethoxy-3-methoxyphenyl)acetyl]piperazin-1-yl}acetyl)piperazine]
- inhibition at 4 µM [2]: > 90%

SMILES: COc1ccc(Cl)c(OC)c1C(=O)N1CCN(CC(=O)N2CCN(C3CCC3)CC2)CC1 [Compound 294, 1-(3-chloro-2,6-dimethoxybenzoyl)-4-[2-(4-cyclobutylpiperazin-1-yl)-2-oxoethyl]piperazine]
- inhibition at 4 µM [1]: > 90%

SMILES: COc1ccc(Br)cc1/C=C/C(=O)N1CCN(CC(=O)N2CCN(C3CCC3)CC2)CC1 [Compound 393, 1-[(2E)-3-(5-bromo-2-methoxyphenyl)prop-2-enoyl]-4-[2-(4-cyclobutylpiperazin-1-yl)-2-oxoethyl]piperazine]
- inhibition at 4 µM [1]: > 90%

SMILES: O=C(Cc1ccccc1C(F)(F)F)N1CCN(CC(=O)N2CCN(C3CCC3)CC2)CC1 [Compound 622, 1-cyclobutyl-4-[(4-{[2-(trifluoromethyl)phenyl]acetyl}piperazin-1-yl)acetyl]piperazine]
- inhibition at 4 µM [3]: > 90%

SMILES: Nc1ccccc1C(=O)N1CCN(CC(=O)N2CCN(C3CCC3)CC2)CC1 [Compound 890, 2-({4-[2-(4-cyclobutylpiperazin-1-yl)-2-oxoethyl]piperazin-1-yl}carbonyl)aniline]
- inhibition at 4 µM [4]: > 90%

SMILES: Cc1ccc(CC(=O)N2CCN(CC(=O)N3CCN(C4CCC4)CC3)CC2)cc1 [Compound 566, 1-cyclobutyl-4-({4-[(4-methylphenyl)acetyl]piperazin-1-yl}acetyl)piperazine]
- inhibition at 4 µM [2]: > 90%

SMILES: C=CCSc1ncccc1C(=O)N1CCN(CC(=O)N2CCN(C3CCC3)CC2)CC1 [Compound 475, 1-{[2-(allythio)pyridin-3-yl]carbonyl}-4-[2-(4-cyclobutylpiperazin-1-yl)-2-oxoethyl]piperazine]
- inhibition at 4 µM [2]: > 90%

SMILES: O=C(CN1CCN(C(=O)c2ccccc2C(F)(F)F)CC1)N1CCN(C2CCC2)CC1 [Compound 579, 1-cyclobutyl-4-({4-[2-(trifluoromethyl)benzoyl]piperazin-1-yl}acetyl)piperazine]
- inhibition at 4 µM [3]: > 90%

SMILES: O=C(CN1CCN(C(=O)c2sc3ccccc3c2Cl)CC1)N1CCN(C2CCC2)CC1 [Compound 397, 1-[(3-chloro-1-benzothien-2-yl)carbonyl]-4-[2-(4-cyclobutylpiperazin-1-yl)-2-oxoethyl]piperazine]
- inhibition at 4 µM [1]: > 90%

SMILES: O=C(/C=C/c1ccc2c(c1)OCO2)N1CCN(CC(=O)N2CCN(C3CCC3)CC2)CC1 [Compound 385, 1-[(2E)-3-(1,3-benzodioxol-5-yl)prop-2-enoyl]-4-[2-(4-cyclobutylpiperazin-1-yl)-2-oxoethyl]piperazine]
- inhibition at 4 µM [1]: > 90%

SMILES: Cc1cc(C(=O)N2CCN(CC(=O)N3CCN(C4CCC4)CC3)CC2)c(C)n1C [Compound 497, 1-cyclobutyl-4-({4-[(1,2,5-trimethyl-1H-pyrrol-3-yl)carbonyl]piperazin-1-yl}acetyl)piperazine]
- inhibition at 4 µM [2]: > 90%

SMILES: O=C(Cc1ccc2c(c1)OCO2)N1CCN(CC(=O)N2CCN(C3CCC3)CC2)CC1 [Compound 259, 1-(1,3-benzodioxol-5-ylacetyl)-4-[2-(4-cyclobutylpiperazin-1-yl)-2-oxoethyl]piperazine]
- inhibition at 4 µM [1]: > 90%

SMILES: Cc1ccccc1C(=O)N1CCN(CC(=O)N2CCN(C3CCC3)CC2)CC1 [Compound 714, 1-cyclobutyl-4-{[4-(2-methylbenzoyl)piperazin-1-yl]acetyl}piperazine]
- inhibition at 4 µM [3]: > 90%

SMILES: Cc1cc(C(=O)N2CCN(CC(=O)N3CCN(C4CCC4)CC3)CC2)nn1C [Compound 498, 1-cyclobutyl-4-({4-[(1,5-dimethyl-1H-pyrazol-3-yl)carbonyl]piperazin-1-yl}acetyl)piperazine]
- inhibition at 4 µM [2]: > 90%

SMILES: Cc1cccc(C(=O)N2CCN(CC(=O)N3CCN(C4CCC4)CC3)CC2)c1N [Compound 892, 2-({4-[2-(4-cyclobutylpiperazin-1-yl)-2-oxoethyl]piperazin-1-yl}carbonyl)-6-methylaniline]
- inhibition at 4 µM [4]: > 90%

SMILES: O=C(CN1CCN(C(=O)c2ccc3c(c2)CCO3)CC1)N1CCN(C2CCC2)CC1 [Compound 669, 1-cyclobutyl-4-{[4-(2,3-dihydro-1-benzofuran-5-ylcarbonyl)piperazin-1-yl]acetyl}piperazine]
- inhibition at 4 µM [3]: > 90%

SMILES: O=C(CN1CCN(C(=O)c2ccc(Br)s2)CC1)N1CCN(C2CCC2)CC1 [Compound 410, 1-[(5-bromo-2-thienyl)carbonyl]-4-[2-(4-cyclobutylpiperazin-1-yl)-2-oxoethyl]piperazine]
- inhibition at 4 µM [1]: > 90%

SMILES: COc1ncc(Cl)cc1C(=O)N1CCN(CC(=O)N2CCN(C3CCC3)CC2)CC1 [Compound 413, 1-[(5-chloro-2-methoxypyridin-3-yl)carbonyl]-4-[2-(4-cyclobutylpiperazin-1-yl)-2-oxoethyl]piperazine]
- inhibition at 4 µM [1]: > 90%

SMILES: O=C(/C=C/c1cccc2ccccc12)N1CCN(CC(=O)N2CCN(C3CCC3)CC2)CC1 [Compound 514, 1-cyclobutyl-4-({4-[(2E)-3-(1-naphthyl)prop-2-enoyl]piperazin-1-yl}acetyl)piperazine]
- inhibition at 4 µM [2]: > 90%

SMILES: CNc1ccc(C(=O)N2CCN(CC(=O)N3CCN(C4CCC4)CC3)CC2)cc1 [Compound 1088]
- inhibition at 4 µM (Table II, assay of Example 8, "+" in Ki): > 90%

SMILES: Cc1ccc(C(=O)N2CCN(CC(=O)N3CCN(C4CCC4)CC3)CC2)cc1C [Compound 734, 1-cyclobutyl-4-{[4-(3,4-dimethylbenzoyl)piperazin-1-yl]acetyl}piperazine]
- inhibition at 4 µM [3]: > 90%

SMILES: O=C(Cc1cccc2ccccc12)N1CCN(CC(=O)N2CCN(C3CCC3)CC2)CC1 [Compound 663, 1-cyclobutyl-4-{[4-(1-naphthylacetyl)piperazin-1-yl]acetyl}piperazine]
- inhibition at 4 µM [3]: > 90%

SMILES: O=C(CN1CCN(C(=O)c2cccc3ccccc23)CC1)N1CCN(C2CCC2)CC1 [Compound 662, 1-cyclobutyl-4-{[4-(1-naphthoyl)piperazin-1-yl]acetyl}piperazine]
- inhibition at 4 µM [3]: > 90%

— US7851474B2, “Dipiperazinyl ketones and related analogues” (Neurogen Corporation, priority 2005, dated 2010)
